Measured values reported in patent publication US8865967B2 (priority 2010, dated 2014).

What was measured:
[1] = test system: Fusarium graminearum (FGR; isolate 73B ISU); assay type: cell-based; details: for IC50 (ppm) High Salt Fgr: high salt: 1/2x liquid media plus 1 mM calcium chloride, 50 mM potassium chloride; for IC50 (ppm) Low Salt Fgr: low salt: 1/8x potato dextrose broth plus 0.25 mM calcium chloride, 12.5 mM potassium chloride
[2] = test system: Colletotrichum graminicola (CGR; isolate Carroll-IA-99); assay type: cell-based; details: for IC50 (ppm) High Salt Cgr: high salt: 1/2x liquid media plus 1 mM calcium chloride, 50 mM potassium chloride, Table 1; for IC50 (ppm) Low Salt Cgr: low salt: 1/8x Czapek-Dox broth plus 0.25 mM calcium chloride, 12.5 mM potassium chloride; for Antifungal activity (IC50 in ppm) against C. graminicola under high salt conditions: Table 2
[3] = test system: Fusarium verticillioides (FVE); assay type: cell-based
Diplodia maydis (DMA) = assay type: cell-based; details: for IC50 (ppm) High Salt Dma: high salt: 1/2x liquid media plus 1 mM calcium chloride, 50 mM potassium chloride; for IC50 (ppm) Low Salt Dma: low salt: 1/8x potato dextrose broth plus 0.25 mM calcium chloride, 12.5 mM potassium chloride
C. graminicola = assay: Invasion of leaf sheaths of transgenic maize by C. graminicola; assay type: in vivo, Colletotrichum graminicola; details: greenhouse, T0 V5-stage maize
Procedure: The leaf sheaths of leaf 4 or 5 of T0 plants at the V5 stage were inoculated with 50 μL of 5×10^6 spores/mL after wounding the leaf sheath on both sides of the midrib about half way between edge and midrib with a small screwdriver. The leaf sheath was covered with plastic wrap for 5 days. Nine days after inoculation the area of lesions was measured.

Row | Substance | IC50 (ppm) High Salt Fgr [1] | IC50 (ppm) High Salt Cgr [2] [ppm] | IC50 (ppm) Low Salt Cgr [2] [ppm] | IC50 (ppm) High Salt Fve [3] [ppm] | IC50 (ppm) High Salt Dma (Diplodia maydis (DMA)) [ppm] | IC50 (ppm) Low Salt Fgr [1] [ppm] | IC50 (ppm) Low Salt Fve [3] [ppm] | IC50 (ppm) Low Salt Dma (Diplodia maydis (DMA)) [ppm] | Antifungal activity (IC50 in ppm) against C. graminicola under high salt conditions [2] [ppm] | relation of protein level to disease development (C. graminicola; leaf sheath invasion by CGR) | invasion of leaf sheaths by CGR compared to empty vector controls (C. graminicola; protein accumulated in endoplasmic reticulum, two transformation constructs)
1 | Pp-PDF1-4CB-6E9: Pp-PDF1 variant from fourth shuffling round (RVCTKPSKFFKGLCISDRQCTNACRKEGLPTGECQPKGFFNSVCVCRKPC; Synthetic sequence obtained from DNA shuffling of a plant sequence.) | 150 ppm | 0.25 | 0.4 | >200 | 100 | – | – | – | – | – | –
2 | Pp-PDF1-3CA-1B2: Pp-PDF1 variant from third shuffling round (RVCTKPSKFYRGLCVSDRDCTHACRKEGLPIGECKSKGFFNSVCVCKKPC; Synthetic sequence obtained from DNA shuffling of a plant sequence.) | ^~100 ppm | 0.8 | 2 | 200 | 50 | 15 | 30 | 15 | – | – | –
3 | Pp-PDF1-4CB-6E6: Pp-PDF1 variant from fourth shuffling round (RVCTKPSKFYKGLCISDRDCTNACRKEGLPIGFCKSKGFFNSVCVCRKPC; Synthetic sequence obtained from DNA shuffling of a plant sequence.) | 150 ppm | 0.25 | 0.25 | >200 | 100 | – | – | – | – | – | –
4 | PP-PDF1-2CF-2D8: Pp-PDF1 variant from second shuffling round (RVCTKPSKFYKGLCVSDRDCTNACRKEGLPTGFCQSKGFFNSVCVCKKPC; Synthetic sequence obtained from DNA shuffling of a plant sequence.) | 100 ppm | 0.6 | 0.3 | 200 | 50 | 15 | 30 | 15 | – | – | –
5 | Pp-PDF1-4CB-12G9: Pp-PDF1 variant from fourth shuffling round (RVCTKPSKFFRGLCVSDRQCTNACRKEGLPIGECQSKGFFNSVCVCRKPC; Synthetic sequence obtained from DNA shuffling of a plant sequence.) | 50 ppm | 0.25 | 0.25 | >200 | 25 | – | – | – | – | – | –
6 | PP-PDF1-1F-12H3: Pp-PDF1 variant from first shuffling round (RVCTKPSKFFKGLCVSDDDCAHACRKEGLATGKCQKKGFFNRVCVCKKPC; Synthetic sequence obtained from DNA shuffling of a plant sequence.) | 3 ppm | 10 | – | >200 | 200 | – | – | – | – | – | –
7 | Pp-PDF1-3CA-2D3: Pp-PDF1 variant from third shuffling round (RVCTKPSKFFRGLCVSDNDCTNACRKEGLPTGFCQSKGFFNSVCVCKKPC; Synthetic sequence obtained from DNA shuffling of a plant sequence.) | ^~100 ppm | 0.8 | 0.3 | 200 | 25 | 15 | 30 | 6 | – | – | –
8 | PP-PDF1-1F-7H6: Pp-PDF1 variant from first shuffling round (RVCEKPSKFFKGMCVRDRDCTVACKKEGLATGFCQKKGFFNFVCVCKKPC; Synthetic sequence obtained from DNA shuffling of a plant sequence.) | 3 ppm | 10 | – | >200 | 200 | – | – | – | – | – | –
9 | Pp-PDF1-1C-7A4: Pp-PDF1 variant from first shuffling round (RVCEKPSKFFKGLCGSDRDCTNACRKEGLATGECQSKGFFNSVCVCKKPC; Synthetic sequence obtained from DNA shuffling of a plant sequence.) | 20 ppm | 5 | 0.1 | >200 | 50 | 4.7 | – | – | 5 | correlated inversely with disease development | significantly improved events
10 | Pp-PDF1-1F-1C5: Pp-PDF1 variant from first shuffling round (KVCTKPSKFFKGMCVRDRDCTNACRKEGLASGFCQKKGFFNFVCVCRKPC; Synthetic sequence obtained from DNA shuffling of a plant sequence.) | 1.5 ppm | 10 | – | >200 | 50 | – | – | – | – | – | –
11 | Pp-PDF1-2CE-4A7: Pp-PDF1 variant from second shuffling round (RVCTKPSKFFKGLCVSDNNCTHACRTEGLPIGFCQSKGFFNSVCVCKKPC; Synthetic sequence obtained from DNA shuffling of a plant sequence.) | 5.6 ppm | 0.8 | – | 200 | 25 | – | – | – | – | – | –
12 | Pp-PDF1-1C-7C4: Pp-PDF1 variant from first shuffling round (RVCTKPSKFFKGMCVSDNDCTHACRKEGLATGFCQSKGFFNSVCVCTKPC; Synthetic sequence obtained from DNA shuffling of a plant sequence.) | 20 ppm | 3 | 0.14 | >200 | 25 | 4.7 | – | – | 5 | – | –
13 | Pp-PDF1-3CA-1A7: Pp-PDF1 variant from third shuffling round (RVCTKPSKFFRGLCVSDRDCTNACRKEGLPIGFCQSKGFFNSVCVCKKPC; Synthetic sequence obtained from DNA shuffling of a plant sequence.) | ^~100 ppm | 0.6 | 0.8 | 200 | 25 | 15 | 30 | 10 | – | – | –
14 | Pp-PDF1: Picramnia pentandra plant defensin, parent polypeptide used in the DNA shuffling (KVCTKPSKFFKGLCGADRDCTVACKKEGLATGFCQKKGFFNFVCVCRKPC; listed as Picramnia pentandra) [reference compound] | 5 ppm | 15 | 3 | 50 | 50 | 2 | 2 | 7.5 | 15 | – | –
